Numbers after ± are expanded uncertainties.
Conditions: Liquid, Frequency=8 MHz, Pulse-echo method

C[Si](C)(C)O[Si](C)(C)O[Si](C)(C)O[Si](C)(C)C [decamethyltetrasiloxane]
Conditions | speed of sound [m/s]
217.81 K, 2 kPa | 1232 ± 1.1
217.81 K, 1324 kPa | 1238.8 ± 1.1
217.85 K, 9419 kPa | 1278.4 ± 1.2
217.9 K, 19699 kPa | 1325.2 ± 1.2
217.99 K, 40255 kPa | 1409.2 ± 1.3
218.01 K, 60115 kPa | 1481.3 ± 1.3
218.09 K, 79712 kPa | 1545.9 ± 1.4
218.16 K, 98572 kPa | 1603 ± 1.5
218.24 K, 118233 kPa | 1658.4 ± 1.6
249.42 K, 119047 kPa | 1575.5 ± 1.5
249.53 K, 98950 kPa | 1515.2 ± 1.4
249.65 K, 80370 kPa | 1454.9 ± 1.3
249.74 K, 59554 kPa | 1380.8 ± 1.2
249.8 K, 19343 kPa | 1208.7 ± 1.1
249.8 K, 39384 kPa | 1300.3 ± 1.2
249.84 K, 1077 kPa | 1110.1 ± 1
249.84 K, 9240 kPa | 1156.2 ± 1.1
299.9 K, 16 kPa | 925.67 ± 0.86
299.92 K, 1080 kPa | 933.63 ± 0.87
299.94 K, 121 kPa | 926.31 ± 0.87
299.96 K, 958 kPa | 932.76 ± 0.88
299.98 K, 9659 kPa | 994.25 ± 0.92
300 K, 19671 kPa | 1056.3 ± 0.98
300 K, 60024 kPa | 1252.4 ± 1.1
300 K, 80266 kPa | 1331.2 ± 1.2
300 K, 99198 kPa | 1397.7 ± 1.3
300.01 K, 40202 kPa | 1164.3 ± 1.1
300.04 K, 119626 kPa | 1463.1 ± 1.4
349.87 K, 59744 kPa | 1145.5 ± 1.1
349.89 K, 9447 kPa | 851.51 ± 0.8
349.89 K, 99170 kPa | 1302.5 ± 1.2
349.89 K, 119296 kPa | 1370.8 ± 1.4
349.9 K, 19447 kPa | 925.37 ± 0.87
349.92 K, 80462 kPa | 1232.5 ± 1.1
349.93 K, 1369 kPa | 780.56 ± 0.74
349.93 K, 40092 kPa | 1049.2 ± 0.96
399.55 K, 120290 kPa | 1300.1 ± 1.3
399.6 K, 1077 kPa | 636.31 ± 0.64
399.6 K, 9691 kPa | 731.33 ± 0.7
399.67 K, 1234 kPa | 638.18 ± 0.64
399.67 K, 20055 kPa | 820.52 ± 0.8
399.69 K, 38533 kPa | 945.04 ± 0.88
399.69 K, 60934 kPa | 1064.3 ± 0.97
399.7 K, 81120 kPa | 1154.3 ± 1.1
399.7 K, 99014 kPa | 1224.6 ± 1.1
449.89 K, 9702 kPa | 623.33 ± 0.62
449.92 K, 19667 kPa | 723.35 ± 0.73
449.96 K, 40506 kPa | 876.94 ± 0.83
449.99 K, 59941 kPa | 986.94 ± 0.91
450.01 K, 80184 kPa | 1082.5 ± 1
450.03 K, 99670 kPa | 1162.7 ± 1.1
450.04 K, 119488 kPa | 1235.4 ± 1.3
450.05 K, 1060 kPa | 502.02 ± 0.54
499.61 K, 9979 kPa | 534.61 ± 0.56
499.67 K, 20291 kPa | 650.54 ± 0.68
499.69 K, 40057 kPa | 807.98 ± 0.78
499.72 K, 4164 kPa | 442.17 ± 0.49
499.72 K, 60022 kPa | 927.39 ± 0.86
499.75 K, 5168 kPa | 460.32 ± 0.51
499.75 K, 80169 kPa | 1026.5 ± 0.95
499.76 K, 1001 kPa | 371.6 ± 0.46
499.78 K, 3058 kPa | 420.07 ± 0.48
499.8 K, 99589 kPa | 1109 ± 1
499.82 K, 1926 kPa | 395 ± 0.47
499.89 K, 119374 kPa | 1183.6 ± 1.2

C[Si](C)(C)O[Si](C)(C)O[Si](C)(C)C [octamethyltrisiloxane]
Conditions | speed of sound [m/s]
299.61 K, 10196 kPa | 986.47 ± 1.2
299.62 K, 101 kPa | 911.32 ± 1.2
299.63 K, 502 kPa | 914.41 ± 1.2
299.64 K, 984 kPa | 918.29 ± 1.2
299.64 K, 1480 kPa | 922.14 ± 1.2
299.65 K, 2012 kPa | 926.38 ± 1.2
299.66 K, 3441 kPa | 937.36 ± 1.2
299.68 K, 20155 kPa | 1050.3 ± 1.2
299.69 K, 5923 kPa | 955.8 ± 1.2
299.71 K, 30179 kPa | 1107.3 ± 1.2
349.58 K, 3704 kPa | 781 ± 1.2
349.59 K, 2066 kPa | 764.64 ± 1.2
349.59 K, 10127 kPa | 839.26 ± 1.2
349.6 K, 1556 kPa | 759.34 ± 1.3
349.61 K, 6067 kPa | 803.25 ± 1.2
349.61 K, 20075 kPa | 915.62 ± 1.1
349.64 K, 29800 kPa | 980.01 ± 1.1
349.65 K, 1075 kPa | 754.2 ± 1.3
349.69 K, 558 kPa | 748.58 ± 1.3
349.91 K, 111 kPa | 742.97 ± 1.3
399.42 K, 29701 kPa | 873.39 ± 1.1
399.95 K, 2018 kPa | 610.77 ± 1.5
399.96 K, 508 kPa | 588.68 ± 1.4
399.96 K, 993 kPa | 595.83 ± 1.6
399.96 K, 1439 kPa | 602.33 ± 1.6
399.96 K, 3510 kPa | 630.8 ± 1.6
400.02 K, 9928 kPa | 704.99 ± 1.2
400.15 K, 19875 kPa | 796.17 ± 1.1
449.44 K, 23518 kPa | 734.5 ± 1.1
449.96 K, 1045 kPa | 448.89 ± 2.2
449.98 K, 1523 kPa | 458.69 ± 2.1
449.99 K, 492 kPa | 436.7 ± 2.3
450.01 K, 1994 kPa | 468.09 ± 2
450.05 K, 3497 kPa | 495.73 ± 1.8
450.09 K, 6009 kPa | 536.6 ± 1.6
450.14 K, 9983 kPa | 591.45 ± 1.4
450.22 K, 20246 kPa | 701.94 ± 1.2
498.94 K, 3487 kPa | 373.05 ± 2.5
498.96 K, 1989 kPa | 328.83 ± 3
499 K, 5834 kPa | 424.21 ± 1.9
499.02 K, 1521 kPa | 313.47 ± 3.4
499.02 K, 10178 kPa | 498.23 ± 1.5
499.04 K, 1000 kPa | 292.6 ± 3.8
499.05 K, 16859 kPa | 585.07 ± 1.4
549.67 K, 15312 kPa | 492.6 ± 1.5
549.74 K, 6653 kPa | 340.31 ± 2.3
549.79 K, 4484 kPa | 279.71 ± 2.9
549.8 K, 10050 kPa | 411.61 ± 1.9
549.84 K, 12528 kPa | 452.26 ± 1.6
